Data published in US12435068B2, “Anthelmintic compounds” (Elanco Animal Health GmBh, priority 2018, dated 2025).
≈ marks a conversion by molar mass, not a printed value.

What was measured:
[1] = tested on: Dirofilaria immitis microfilariae; test: In Vitro Assay 2: Dirofilaria immitis microfilariae (DIROIM L1) motility; format: cell-based; conditions: 72 h, read-out: EC50 ppm
C. elegans Slo-1a = C. elegans Slo-1a (Caenorhabditis elegans, UniProt Q95V25)
C. elegans Slo-1a, sequence (Q95V25 whole entry): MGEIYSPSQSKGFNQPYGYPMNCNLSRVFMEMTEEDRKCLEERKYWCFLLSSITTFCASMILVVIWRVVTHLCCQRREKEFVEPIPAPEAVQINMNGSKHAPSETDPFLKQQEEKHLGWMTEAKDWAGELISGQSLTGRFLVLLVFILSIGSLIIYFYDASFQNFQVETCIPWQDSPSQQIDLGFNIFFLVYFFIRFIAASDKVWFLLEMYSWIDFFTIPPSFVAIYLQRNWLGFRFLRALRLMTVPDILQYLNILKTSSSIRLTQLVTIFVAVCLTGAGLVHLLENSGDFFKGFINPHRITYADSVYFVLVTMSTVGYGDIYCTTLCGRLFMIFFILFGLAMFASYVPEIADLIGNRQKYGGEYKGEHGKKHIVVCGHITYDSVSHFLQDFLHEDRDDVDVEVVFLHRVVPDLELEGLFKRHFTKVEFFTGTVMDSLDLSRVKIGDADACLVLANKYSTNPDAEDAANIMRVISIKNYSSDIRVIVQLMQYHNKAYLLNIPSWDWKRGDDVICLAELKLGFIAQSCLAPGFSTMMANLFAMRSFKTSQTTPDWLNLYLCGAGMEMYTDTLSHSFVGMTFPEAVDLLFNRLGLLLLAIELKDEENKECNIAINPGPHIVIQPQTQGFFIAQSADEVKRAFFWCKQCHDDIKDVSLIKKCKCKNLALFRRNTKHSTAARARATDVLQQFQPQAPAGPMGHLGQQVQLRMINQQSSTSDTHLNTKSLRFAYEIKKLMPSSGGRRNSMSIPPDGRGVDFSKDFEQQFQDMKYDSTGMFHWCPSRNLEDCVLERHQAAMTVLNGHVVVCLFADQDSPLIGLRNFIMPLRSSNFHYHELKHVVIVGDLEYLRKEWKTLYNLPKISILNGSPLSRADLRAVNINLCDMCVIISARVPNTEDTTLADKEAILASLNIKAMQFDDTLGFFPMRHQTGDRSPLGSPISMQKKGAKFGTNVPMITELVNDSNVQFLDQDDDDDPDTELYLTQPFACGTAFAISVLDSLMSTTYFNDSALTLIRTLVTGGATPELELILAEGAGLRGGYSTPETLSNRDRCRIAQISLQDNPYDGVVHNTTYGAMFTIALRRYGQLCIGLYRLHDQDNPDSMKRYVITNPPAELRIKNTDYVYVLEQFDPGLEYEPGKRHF
Protocol: Cells were cultured at 37° C. and 5% CO2 in MEMalpha with Gutamax I (Invitrogen, Nr.: 32571), supplemented with 10% (v/v) heat inactivated fetal bovine serum (Invitrogen, Nr.: 10500), G418 (1 mg/ml, Invitrogen, Nr.: 10131). Cells were detached using Accutase (Sigma, Nr.: A6964).
Membrane Potential Measurements
Laboratory compound testing was performed on 384-well microtiter plates (MTPs, Greiner, Nr.: 781092). 8000 cells/well were plated onto 384-well MTPs and cultured for 20 to 24 hours at 37° C. and 5% CO2. After removal of the cell culture medium, the cells were washed once with tyrode (150 mM NaCl, 0.3 mM KCl, 2 mM CaCl2, 1 mM MgCl2, 0.8 mM NaH2PO4, 5 mM Glucose, 28 mM Hepes, pH 7.4) and then loaded with the voltage sensitive dye of the Membrane Potential Assay Kit diluted in tyrode for 1 h at room temperature.
After starting the measurement of fluorescence using a FLIPR Tetra (Molecular Devices, Exc. 510-545 nm, Emm. 565-625 nm), test compounds were added followed by the addition of KCl tyrode (final assay concentration: 70 mM KCl, 2 mM CaCl2, 1 mM MgCl2, 0.8 mM NaH2PO4, 5 mM Glucose, 28 mM Hepes, pH 7.4, including the voltage sensitive dye). The measurement was completed after 7 minutes.

Compound	EC50 [1] [µg/mL]	EC50 (C. elegans Slo-1a) [nM]
CC(C)c1c(C(=O)N[C@H]2CCOc3ccccc32)sc2c(-c3cc(Cl)cc(Cl)c3)cccc12 [Example Compound S1-1, 7-(3,5-Dichlorophenyl)-N-[(4S)-3,4-dihydro-2H-chromen-4-yl]-3-isopropyl-1-benzothiophene-2-carboxamide]	0.08 (≈ 0.161 µM)	2.51
COc1c(C(=O)N[C@H]2CCOc3ccccc32)sc2c(-c3cc(Cl)cc(Cl)c3)cccc12 [Example Compound S1-9, 7-(3,5-Dichlorophenyl)-N-[(4S)-3,4-dihydro-2H-chromen-4-yl]-3-methoxy-1-benzothiophene-2-carboxamide]	0.27 (≈ 0.557 µM)	251
Cc1nn(-c2c(F)cccc2F)c2ncc(C(=O)N[C@H]3CCOc4ccccc43)c(N(C)C)c12 [Example Compound S4-3, 1-(2,6-Difluorophenyl)-N-[(4S)-3,4-dihydro-2H-chromen-4-yl]-4-(dimethylamino)-3-methyl-1H-pyrazolo[3,4-b]pyridine-5-carboxamide]	1.82 (≈ 3.93 µM)	158
O=C(N[C@H]1CCOc2ccccc21)c1sc2c(-c3cc(Cl)cc(Cl)c3)ccc(F)c2c1N1CCOCC1 [Example Compound S1-18, 7-(3,5-Dichlorophenyl)-N-[(4S)-3,4-dihydro-2H-chromen-4-yl]-4-fluoro-3-(morpholin-4-yl)-1-benzothiophene-2-carboxamide]	0.27 (≈ 0.484 µM)	126
Cn1c(C(=O)N[C@H]2CCOc3ccccc32)nc2c(-c3cccc(Cl)c3Cl)ccnc21 [Example Compound S2-1, 7-(2,3-Dichlorophenyl)-N-[(4S)-3,4-dihydro-2H-chromen-4-yl]-3-methyl-3H-imidazo[4,5-b]pyridine-2-carboxamide]	0.63 (≈ 1.39 µM)	31.6
CN(C)c1c(C(=O)N[C@H]2CCOc3ccccc32)sc2c(-c3ccc(F)c(F)c3)cccc12 [Example Compound S1-8, 7-(3,4-Difluorophenyl)-N-[(4S)-3,4-dihydro-2H-chromen-4-yl]-3-(dimethylamino)-1-benzothiophene-2-carboxamide]	0.63 (≈ 1.36 µM)	3160
Cc1nn(-c2cc(Cl)cc(Cl)c2)c2ncc(C(=O)N[C@H]3CCOc4ccccc43)c(N(C)C)c12 [Example Compound S4-2, 1-(3,5-Dichlorophenyl)-N-[(4S)-3,4-dihydro-2H-chromen-4-yl]-4-(dimethylamino)-3-methyl-1H-pyrazolo[3,4-b]pyridine-5-carboxamide]	> 2	2000
CC(C)n1c(C(=O)N[C@H]2CCOc3ccccc32)cc2c(-c3cc(Cl)cc(Cl)c3)cccc21 [Example Compound S2-5, 4-(3,5-Dichlorophenyl)-N-[(4S)-3,4-dihydro-2H-chromen-4-yl]-1-(propan-2-yl)-1H-indole-2-carboxamide]	0.06 (≈ 0.125 µM)	25.1
O=C(N[C@H]1CCc2ccccc21)c1ccc2nc(-c3cccc(Cl)c3Cl)cnc2c1 [Example Compound S9-5, 2-(2,3-Dichlorophenyl)-N-[(1S)-2,3-dihydro-1H-inden-1-yl]quinoxaline-6-carboxamide]	0.37 (≈ 0.852 µM)	31.6
CC(C)c1c(C(=O)N[C@H]2CCc3ccccc32)ccc2c1nnn2-c1cccc(Cl)c1 [Example Compound S4-8, 1-(3-Chlorophenyl)-N-[(1S)-2,3-dihydro-1H-inden-1-yl]-4-(propan-2-yl)-1H-benzotriazole-5-carboxamide]	> 2	10000
CN(C)c1c(C(=O)N[C@H]2CCOc3ccccc32)sc2c(-c3cccc(Cl)c3Cl)cccc12 [Example Compound S1-7, 7-(2,3-Dichlorophenyl)-N-[(4S)-3,4-dihydro-2H-chromen-4-yl]-3-(dimethylamino)-1-benzothiophene-2-carboxamide]	0.11 (≈ 0.221 µM)	10
O=C(N[C@H]1CCOc2ccccc21)c1ccc2nc(-c3ccccc3Cl)cnc2c1 [Example Compound S9-2, 2-(2-Chlorophenyl)-N-[(4S)-3,4-dihydro-2H-chromen-4-yl]quinoxaline-6-carboxamide]	1.95 (≈ 4.69 µM)	631
CC(C)c1c(C(=O)N[C@H]2CCc3ccccc32)ccc2c1nnn2-c1ccccc1Cl [Example Compound S4-10, 1-(2-Chlorophenyl)-N-[(1S)-2,3-dihydro-1H-inden-1-yl]-4-(propan-2-yl)-1H-benzotriazole-5-carboxamide]	> 2	3160
CC(C)c1c(C(=O)N[C@H]2CCc3ccccc32)ccc2c1nnn2-c1ccccc1 [Example Compound S4-7, N-[(1S)-2,3-Dihydro-1H-inden-1-yl]-1-phenyl-4-(propan-2-yl)-1H-benzotriazole-5-carboxamide]	> 2	2000
CN(C)c1c(C(=O)N[C@H]2CCOc3ccccc32)sc2c(-c3cccc(Cl)c3)cccc12 [Example Compound S1-6, 7-(3-Chlorophenyl)-N-[(4S)-3,4-dihydro-2H-chromen-4-yl]-3-(dimethylamino)-1-benzothiophene-2-carboxamide]	0.25 (≈ 0.54 µM)	31.6
CC(C)n1c(C(=O)N[C@H]2CCOc3ccccc32)cc2c(-c3cc(Cl)nc(Cl)c3)cccc21 [Example Compound S2-3, 4-(2,6-Dichloropyridin-4-yl)-N-[(4S)-3,4-dihydro-2H-chromen-4-yl]-1-(propan-2-yl)-1H-indole-2-carboxamide]	> 2	100
O=C(N[C@H]1CCOc2ccccc21)c1ccc2c(-c3cccc(Cl)c3Cl)cccc2c1 [Example Compound S6-1, 5-(2,3-Dichlorophenyl)-N-[(4S)-3,4-dihydro-2H-chromen-4-yl]naphthalene-2-carboxamide]	0.63 (≈ 1.41 µM)	79.4
Cn1c(C(=O)N[C@H]2CCc3ccccc32)nc2c(-c3cccc(Cl)c3Cl)ccnc21 [Example Compound S2-2, 7-(2,3-Dichlorophenyl)-N-[(1S)-2,3-dihydro-1H-inden-1-yl]-3-methyl-3H-imidazo[4,5-b]pyridine-2-carboxamide]	0.37 (≈ 0.846 µM)	501
CC(C)c1c(C(=O)N[C@H]2CCc3ccccc32)ccc2c1nnn2-c1ccc(Cl)cc1 [Example Compound S4-6, 1-(4-Chlorophenyl)-N-[(1S)-2,3-dihydro-1H-inden-1-yl]-4-(propan-2-yl)-1H-benzotriazole-5-carboxamide]	> 2	251
O=C(N[C@H]1CCOc2ccccc21)c1sc2c(-c3cccc(Cl)c3Cl)cccc2c1Cl [Example Compound S1-12, 3-Chloro-7-(2,3-dichlorophenyl)-N-[(4S)-3,4-dihydro-2H-chromen-4-yl]-1-benzothiophene-2-carboxamide]	0.1 (≈ 0.205 µM)	158
O=C(N[C@H]1CCOc2ccccc21)c1ccc2nc(-c3cccc(C(F)(F)F)c3Cl)cnc2c1 [Example Compound S9-1, 2-[2-Chloro-3-(trifluoromethyl)phenyl]-N-[(4S)-3,4-dihydro-2H-chromen-4-yl]quinoxaline-6-carboxamide]	0.52 (≈ 1.07 µM)	20
CC(C)c1c(C(=O)N[C@H]2CCc3ccccc32)ccc2c1nnn2-c1cccc(C(F)(F)F)c1 [Example Compound S4-9, N-[(1S)-2,3-Dihydro-1H-inden-1-yl]-4-(propan-2-yl)-1-[3-(trifluoromethyl)phenyl]-1H-benzotriazole-5-carboxamide]	> 2	1580
CC(C)c1c(C(=O)N[C@H]2CCOc3ccccc32)nc2c(-c3cccc(Cl)c3Cl)cccn12 [Example Compound S3-1, 8-(2,3-Dichlorophenyl)-N-[(4S)-3,4-dihydro-2H-chromen-4-yl]-3-(propan-2-yl)imidazo[1,2-a]pyridine-2-carboxamide]	0.63 (≈ 1.31 µM)	251
CC(C)c1c(C(=O)N[C@H]2CCOc3ccccc32)sc2c(-c3ccc(F)c(F)c3)cccc12 [Example Compound S1-4, 7-(3,4-Difluorophenyl)-N-[(4S)-3,4-dihydro-2H-chromen-4-yl]-3-isopropyl-1-benzothiophene-2-carboxamide]	0.77 (≈ 1.66 µM)	50.1
O=C(N[C@H]1CCOc2ccccc21)c1sc2c(-c3cccc(Cl)c3Cl)ccc(F)c2c1N1CCOCC1 [Example Compound S1-17, 7-(2,3-Dichlorophenyl)-N-[(4S)-3,4-dihydro-2H-chromen-4-yl]-4-fluoro-3-(morpholin-4-yl)-1-benzothiophene-2-carboxamide]	0.52 (≈ 0.933 µM)	50.1
COc1c(C(=O)N[C@H]2CCOc3ccccc32)sc2c(-c3cccc(Cl)c3Cl)nccc12 [Example Compound S1-16, 7-(2,3-Dichlorophenyl)-N-[(4S)-3,4-dihydro-2H-chromen-4-yl]-3-methoxythieno[2,3-c]pyridine-2-carboxamide]	0.18 (≈ 0.371 µM)	25.1
O=C(N[C@H]1CCc2ccccc21)c1ccc2nc(-c3ccccc3Cl)cnc2c1 [Example Compound S9-3, 2-(2-Chlorophenyl)-N-[(1S)-2,3-dihydro-1H-inden-1-yl]quinoxaline-6-carboxamide]	0.61 (≈ 1.53 µM)	100
CN(C)c1c(C(=O)N[C@H]2CCOc3ccccc32)sc2c(-c3cc(Cl)cc(Cl)c3)cccc12 [Example Compound S1-5, 7-(3,5-Dichlorophenyl)-N-[(4S)-3,4-dihydro-2H-chromen-4-yl]-3-(dimethylamino)-1-benzothiophene-2-carboxamide]	0.25 (≈ 0.503 µM)	25.1
CN(C)c1c(C(=O)N[C@H]2CCOc3ccccc32)cnc2c1cnn2-c1cc(Cl)cc(Cl)c1 [Example Compound S4-4, 1-(3,5-Dichlorophenyl)-N-[(4S)-3,4-dihydro-2H-chromen-4-yl]-4-(dimethylamino)-1H-pyrazolo[3,4-b]pyridine-5-carboxamide]	> 2	501
O=C(N[C@H]1CCc2ccccc21)c1ccc2nc(-c3cccc(C(F)(F)F)c3Cl)cnc2c1 [Example Compound S9-6, 2-[2-Chloro-3-(trifluoromethyl)phenyl]-N-[(1S)-2,3-dihydro-1H-inden-1-yl]quinoxaline-6-carboxamide]	0.44 (≈ 0.94 µM)	31.6
